Measurements taken from patent US20240173432A1, “Compositions and Methods for Treatment of Myotonic Dystrophy Type 1 with CRISPR/SluCas9” (Vertex Pharmaceuticals Incorporated, priority 2021, published 2024).

Legend:
[1] = system: CAG foci in primary DM1 patient myoblasts; assay: Single-cut screening: CAG foci staining; format: cell-based, human; conditions: single sgRNA; for % of CAG foci positive nuclei (DNA-PKi): DNA-PKi treated
Procedure, shortened: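 Primary DM1 patient myoblasts were PFA-fixed and hybridized with […] (1 ng/μL, 15 min at 80° C) in 30% formamide/2×SSC, followed by anti-MBNL1 immunostaining and Hoechst counterstain. CAG RNA foci were quantified by high-content confocal imaging after single-cut SuCas9 sgRNA editing.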

[2] = system: CUG foci in primary DM1 patient myoblasts; assay: Single-cut screening: FISH staining of CUG RNA foci; format: cell-based, human; conditions: single sgRNA, primary DM1 patient myoblasts; for % of CUG foci free nuclei (DNA-PKi): DNA-PKi treated
Procedure, shortened: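 CD56-purified primary DM1 patient myoblasts nucleofected with SluCas9:sgRNA RNP (30:90 pmol, single-cut), then DMSO or 3 μM DNA-PK inhibitor for 48 h. At 72 h post-nucleofection, cells fixed and stained for CUG foci with Cy3-PNA(CAG)5 probe (1 ng/μL, 80 °C), co-stained for MBNL1 and Hoechst, imaged by high-content confocal microscopy.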

[3] = system: 3′ UTR of the human DMPK gene; assay: Single-cut screening: indel editing efficiency by Sanger sequencing and ICE analysis in primary DM1 patient myoblasts; format: cell-based; conditions: vehicle-treated samples; for Indel efficiency: single SluCas9 sgRNA RNP in primary DM1 patient myoblasts, Sanger sequencing and ICE analysis; for indel efficiency (Sanger sequencing and ICE analysis): single-cut, SluCas9 RNP, 72 hrs post nucleofection, wild-type allele
Description: Genomic DNA of DM1 myoblasts was isolated with the Kingfisher Flex purification system (Thermal Fisher) in 96-well format following the manufacturer's instruction. The DMPK 3′ UTR region was amplified using GoTaq Green Master Mix (Promega) and PCR primers flanking the 3′ UTR region. […] Amplification was conducted using the following cycling parameters: 1 cycle at 95° C. for 2 min; 40 cycles of 95° C. for 30 sec, 63° C. for 30 sec, and 72° C. for 90 sec; 1 cycle at 72° C. for 5 min. Only the wild type allele is amplified by the PCR reaction. The PCR products were analyzed on the TapeStation system with High Sensitivity D5000 ScreenTape (Agilent Technologies).
PCR products were purified and sequenced by Sanger sequencing. […] Indel values were estimated using the ICE analysis algorithm (Synthego) with the chromatogram files obtained from Sanger sequencing.
RNPs were assembled with recombinant SluCas9 protein and chemically modified sgRNAs at a ratio of 1:3 (protein:sgRNA). For SINGLE-cut screening, RNP complexes were assembled with 30 pmol of SluCas9 and 90 pmol of sgRNA in P5 Primary Cell Nucleofector Solution (Lonza). After incubation at room temperature for 20 minutes, 10 μL of RNP complex were mixed with two hundred thousand of primary myoblasts resuspended in 10 μL of P5 Nucleofector Solution. For DOUBLE-cut screening, RNP complexes were first assembled for individual sgRNAs with 20 pmol of SluCas9 protein and 60 pmol of sgRNAs in 5 μL of P5 Nucleofector Solution. After incubation at room temperature for 20 minutes, the two RNP complexes (one for upstream sgRNA and one for downstream sgRNA) were mixed at 1:1 ratio and then further mixed with two hundred thousand of primary myoblasts resuspended in 10 μL of P5 Nucleofector Solution.
The Nucleofector 96-well Shuttle System (Lonza) was used to deliver the SluCa9/sgRNA RNPs into primary DM1 patient myoblasts using the nucleofection program CM138. […] 72 hrs post nucleofection, two wells of DMSO-treated myoblasts and two wells of DNA-PKi-treated myoblasts from each nucleofection were harvested for genomic DNA extraction using the Kingfisher Flex purification system (Thermal Fisher), whereas one well of DMSO-treated myoblasts and one well of DNA-PKi-treated myoblasts were stained for RNA foci by FISH staining.
To assess the efficiency of individual SluCas9 sgRNAs for inducing indel editing and CTG repeat excision, single-cut screening was performed in which individual SluCas9 sgRNAs and recombinant SluCas9 protein were assembled into ribonucleoprotein (RNP) and delivered into primary DM1 patient myoblasts. […] Seventy-two (72) hrs post nucleofection, myoblasts were subjected to either genomic DNA isolation or RNA foci staining by fluorescence in situ hybridization (FISH).
Sanger sequencing and ICE analysis were then performed to quantify the frequency of indels induced by individual sgRNAs. It is of note that only the vehicle-treated samples were used for ICE analysis.
Editing efficiency was assessed by Sanger sequencing and ICE analysis. […] The * indicates the sgRNAs with R2<0.9 in the ICE analysis (in-house QC standard for reliable ICE analysis).

In the case of “CAGCGCAAGTGAGGAGGGGGGC (guide RNA; chemistry not fully specified) [SluD46]”, the “% of CAG foci positive nuclei (DNA-PKi)” value [1] was 1.16%, the “% of CAG foci positive nuclei (Vehicle)” value [1] was 1.69% and the “% of CUG foci free nuclei (DNA-PKi)” value [2] was 34.71%. For the same substance, the “% of CUG foci free nuclei (Vehicle)” value [2] was 8.24% and the Indel efficiency [3] was 46%.

“CAGGCTGAGGCCCTGACGTGGA (guide RNA; chemistry not fully specified) [SluD07]” was tested, and the “% of CAG foci positive nuclei (DNA-PKi)” value [1] was 0.82%, the “% of CAG foci positive nuclei (Vehicle)” value [1] was 2.37% and the “% of CUG foci free nuclei (DNA-PKi)” value [2] was 29.79%. The “% of CUG foci free nuclei (Vehicle)” value [2] was 12.52% and the Indel efficiency [3] was 28%.

In the case of “CAGTGCATCCAAAACGTGGATT (guide RNA; chemistry not fully specified) [SluD75]”, the “% of CAG foci positive nuclei (DNA-PKi)” value [1] was 1.9%, the “% of CAG foci positive nuclei (Vehicle)” value [1] was 1.56% and the “% of CUG foci free nuclei (DNA-PKi)” value [2] was 22.6%. The “% of CUG foci free nuclei (Vehicle)” value [2] was 11.9% and the Indel efficiency [3] was 17%.

In the case of “CAGTTCACAACCGCTCCGAGCG (guide RNA; chemistry not fully specified) [SluU23]”, the “% of CAG foci positive nuclei (DNA-PKi)” value [1] was 1.53%, the “% of CAG foci positive nuclei (Vehicle)” value [1] was 1% and the “% of CUG foci free nuclei (DNA-PKi)” value [2] was 29.8%. For the same substance, the “% of CUG foci free nuclei (Vehicle)” value [2] was 11.23% and the Indel efficiency [3] was 5%.

For “CCAAAACGTGGATTGGGGTTGT (listed as DNA, chemistry not fully specified) [SluD73]”, the “% of CAG foci positive nuclei (DNA-PKi)” value [1] was 2.33%, the “% of CAG foci positive nuclei (Vehicle)” value [1] was 2.52% and the “% of CUG foci free nuclei (DNA-PKi)” value [2] was 32.52%. For the same substance, the “% of CUG foci free nuclei (Vehicle)” value [2] was 12.95%, the Indel efficiency [3] was 65% and the “indel efficiency (Sanger sequencing and ICE analysis)” value [3] was “high editing IN4DEL efficiency”.

“CCACGCTCGGAGCGGTTGTGAA (guide RNA; chemistry not fully specified) [SluU24]” was tested, and the “% of CAG foci positive nuclei (DNA-PKi)” value [1] was 1.56%, the “% of CAG foci positive nuclei (Vehicle)” value [1] was 1% and the “% of CUG foci free nuclei (DNA-PKi)” value [2] was 50.23%. For the same substance, the “% of CUG foci free nuclei (Vehicle)” value [2] was 20.62% and the Indel efficiency [3] was 28%.

With “CCAGCCGGCTCCGCCCGCTTCG (listed as DNA, chemistry not fully specified) [SluD56]” the “% of CAG foci positive nuclei (DNA-PKi)” value [1] was 2.91%, the “% of CAG foci positive nuclei (Vehicle)” value [1] was 1.04% and the “% of CUG foci free nuclei (DNA-PKi)” value [2] was 31.7%. For the same substance, the “% of CUG foci free nuclei (Vehicle)” value [2] was 13.88%, the Indel efficiency [3] was 70% and the “indel efficiency (Sanger sequencing and ICE analysis)” value [3] was “high editing IN4DEL efficiency”.

With “CCAGGCTGAGGCCCTGACGTGG (listed as DNA, chemistry not fully specified) [SluD06]” the “% of CAG foci positive nuclei (DNA-PKi)” value [1] was 1.35%, the “% of CAG foci positive nuclei (Vehicle)” value [1] was 3.12% and the “% of CUG foci free nuclei (DNA-PKi)” value [2] was 23.09%. For the same substance, the “% of CUG foci free nuclei (Vehicle)” value [2] was 24.51%, the Indel efficiency [3] was 55% and the “indel efficiency (Sanger sequencing and ICE analysis)” value [3] was “high editing IN4DEL efficiency”.

In the case of “CCAGTTCACAACCGCTCCGAGC (guide RNA; chemistry not fully specified) [SluU22]”, the “% of CAG foci positive nuclei (DNA-PKi)” value [1] was 1.28%, the “% of CAG foci positive nuclei (Vehicle)” value [1] was 0.96% and the “% of CUG foci free nuclei (DNA-PKi)” value [2] was 50.21%. The “% of CUG foci free nuclei (Vehicle)” value [2] was 27.56% and the Indel efficiency [3] was 41%.

For “CCATCCACGTCAGGGCCTCAGC (guide RNA; chemistry not fully specified) [SluD08]”, the “% of CAG foci positive nuclei (DNA-PKi)” value [1] was 1.22%, the “% of CAG foci positive nuclei (Vehicle)” value [1] was 5% and the “% of CUG foci free nuclei (DNA-PKi)” value [2] was 48.28%. For the same substance, the “% of CUG foci free nuclei (Vehicle)” value [2] was 27.09% and the Indel efficiency [3] was 45%.

“CCCAACAACCCCAATCCACGTT (guide RNA; chemistry not fully specified) [SluD70]” was tested, and the “% of CAG foci positive nuclei (DNA-PKi)” value [1] was 2.45%, the “% of CAG foci positive nuclei (Vehicle)” value [1] was 2.33% and the “% of CUG foci free nuclei (DNA-PKi)” value [2] was 30.47%. For the same substance, the “% of CUG foci free nuclei (Vehicle)” value [2] was 22.75% and the Indel efficiency [3] was 14%.

For “CCCCCTAGCggccggggaggga (guide RNA; as printed in the source, key not given here) [SluU44]”, the “% of CAG foci positive nuclei (DNA-PKi)” value [1] was 1.77%, the “% of CAG foci positive nuclei (Vehicle)” value [1] was 0.7% and the “% of CUG foci free nuclei (DNA-PKi)” value [2] was 47%. For the same substance, the “% of CUG foci free nuclei (Vehicle)” value [2] was 12.6% and the Indel efficiency [3] was 16%.
